Data taken from DBAASP.
Converted amounts (≈) assume the structure as drawn. Values belong to the compound of their own block, whether it stands above or below them.

Columns and labels:
Experiment in all cases: ≥ marks a high value that may be exact or a test limit, other limits are often not marked, values filed in µg/mL are converted to µM
[1] = system: Candida albicans ATCC 64550
[2] = system: Escherichia coli BL21
[3] = system: Pseudomonas aeruginosa PAO1
[4] = system: Pseudomonas syringae
[5] = system: Streptococcus pyogenes GAS M1T1
[6] = system: Xanthomonas axonopodis pv. phaseoli ATCC 9563
[7] = system: Bacillus subtilis CGMCC 1.3376
[8] = system: Escherichia coli CGMCC 1.8732
[9] = system: Klebsiella pneumoniae CGMCC 1.1736
[10] = system: Pseudomonas aeruginosa CGMCC 1.2421
[11] = system: Staphylococcus aureus CGMCC 1.8721
[12] = system: Staphylococcus epidermidis CGMCC 1.4260
[13] = system: Bacillus subtilis ATCC 6633
[14] = system: Escherichia coli K-12
[15] = system: Micrococcus luteus NCIMB 13267
[16] = system: Pseudomonas aeruginosa ATCC 27853
[17] = system: Staphylococcus aureus ATCC 6538
[18] = system: Acinetobacter baumannii ATCC 19606
[19] = system: Enterococcus faecalis ATCC 7080
[20] = system: Escherichia coli ATCC 11775
[21] = system: Pseudomonas aeruginosa ATCC 25668
[22] = system: Staphylococcus aureus ATCC 29213
[23] = system: Staphylococcus aureus ATCC 33591
[24] = system: Staphylococcus aureus ATCC BAA-44
[25] = system: Staphylococcus epidermidis ATCC 12228
[26] = system: Staphylococcus epidermidis ATCC 51625
[27] = system: Streptococcus gordonii ATCC 10558
[28] = system: Streptococcus mutans GS-5
[29] = system: Streptococcus mutans UA159
[30] = system: Streptococcus sanguinis ATCC 49295
[31] = system: Escherichia coli ATCC 25322
[32] = system: Staphylococcus aureus ATCC 25923
[33] = system: Aeromonas hydrophila
[34] = system: Escherichia coli
[35] = system: Staphylococcus aureus
[36] = system: Streptococcus pyogenes
[37] = system: Vibrio alginolyticus
[38] = system: Vibrio fluvialis
[39] = system: Vibrio parahaemolyticus

SMILES: CC(=O)N[C@@H](C)C(=O)N[C@@H](C)C(=O)N[C@@H](C)C(=O)N[C@@H](C)C(=O)N[C@@H](C)C(=O)N[C@@H](C)C(=O)N[C@@H](C)C(=O)N[C@@H](C)C(=O)N[C@@H](C)C(=O)N[C@@H](CCCCN)C(N)=O [AAAAAAAAAK]
MIC [1]: ≥ 100 µM

SMILES: CC[C@H](C)[C@H](NC(=O)[C@H](CCCCN)NC(=O)[C@H](CC(N)=O)NC(=O)[C@H](CCCCN)NC(=O)[C@H](CC(C)C)NC(=O)[C@H](Cc1ccc(O)cc1)NC(=O)[C@H](CCC(N)=O)NC(=O)[C@H](CCCN=C(N)N)NC(=O)[C@@H](NC(=O)[C@@H](NC(=O)[C@H](CCCCN)NC(=O)[C@H](CCCCN)NC(=O)CNC(=O)[C@H](C)N)[C@@H](C)O)[C@@H](C)CC)C(=O)N[C@@H](CCCCN)C(=O)N[C@@H](CCCCN)C(=O)N[C@@H](CCCCN)C(=O)N[C@@H](Cc1c[nH]c2ccccc12)C(=O)N[C@@H](CCCN=C(N)N)C(=O)N[C@@H](CCCCN)C(=O)N[C@@H](C)C(=O)N[C@H](C(=O)N[C@H](C(=O)N[C@@H](C)C(=O)N[C@@H](Cc1c[nH]c2ccccc12)C(=O)O)[C@@H](C)CC)C(C)C [AGKKTIRQYLKNKIKKKWRKAVIAW]
MIC [2]: 8 µM (≈ 24.5 µg/mL) | MIC [3]: 10 µM (≈ 30.6 µg/mL) | MIC [4]: 8 µM (≈ 24.5 µg/mL) | MIC [5]: 8 µM (≈ 24.5 µg/mL) | MIC [6]: 1 µM (≈ 3.06 µg/mL)

SMILES: CC[C@H](C)[C@H](NC(=O)[C@H](C)N)C(=O)NCC(=O)N[C@@H](CO)C(=O)N[C@H](C(=O)N[C@@H](CC(C)C)C(=O)NCC(=O)N[C@@H](CCCN=C(N)N)C(=O)N[C@@H](CC(C)C)C(=O)N[C@@H](C)C(=O)N[C@@H](CCCCN)C(=O)NCC(=O)N[C@@H](CC(C)C)C(=O)N1CCC[C@H]1C(=O)N[C@H](C(=O)N[C@@H](CC(C)C)C(=O)N[C@@H](CCCCN)C(=O)N[C@@H](CO)C(=O)N[C@@H](Cc1c[nH]c2ccccc12)C(=O)N[C@H](C(=O)N[C@@H](CCCCN)C(=O)N[C@@H](CC(N)=O)C(=O)N[C@@H](CCCN=C(N)N)C(N)=O)[C@@H](C)CC)[C@@H](C)O)[C@@H](C)CC [AIGSILGRLAKGLPTLKSWIKNR]
MIC [7]: 12.5 µM (≈ 31.2 µg/mL) | MIC [8]: 25 µM (≈ 62.3 µg/mL) | MIC [9]: 25 µM (≈ 62.3 µg/mL) | MIC [10]: 25 µM (≈ 62.3 µg/mL) | MIC [11]: ≥ 100 µM | MIC [12]: 6.25 µM (≈ 15.6 µg/mL)

SMILES: CC(C)C[C@H](NC(=O)[C@H](CCCCN)NC(=O)[C@H](C)NC(=O)[C@H](CC(C)C)NC(=O)[C@H](CCCCN)NC(=O)[C@H](CCC(N)=O)NC(=O)[C@H](CCCCN)NC(=O)[C@H](CC(C)C)NC(=O)[C@H](CCCCN)NC(=O)[C@H](CCC(N)=O)NC(=O)[C@H](CC(C)C)NC(=O)[C@H](CCCCN)NC(=O)[C@H](C)NC(=O)[C@H](CCCCN)NC(=O)[C@H](CC(C)C)NC(=O)[C@H](CCCCN)NC(=O)[C@H](C)NC(=O)[C@H](CC(C)C)NC(=O)[C@H](CCCCN)NC(=O)[C@H](CCC(N)=O)NC(=O)[C@@H](N)CCCCN)C(=O)O [KQKLAKLKAKLQKLKQKLAKL]
MIC [13]: 6 µM (≈ 14.7 µg/mL) | MIC [14]: 3 µM (≈ 7.34 µg/mL) | MIC [15]: 12 µM (≈ 29.4 µg/mL) | MIC [16]: 12 µM (≈ 29.4 µg/mL) | MIC [17]: > 50 µM

SMILES: CC(C)C[C@H](NC(=O)[C@H](Cc1c[nH]c2ccccc12)NC(=O)[C@H](CCCCN)NC(=O)[C@H](CC(C)C)NC(=O)[C@H](Cc1c[nH]c2ccccc12)NC(=O)[C@H](CCCCN)NC(=O)[C@H](CCCCN)NC(=O)[C@H](CC(C)C)NC(=O)[C@H](Cc1c[nH]c2ccccc12)NC(=O)[C@@H](N)CCCCN)C(=O)N[C@@H](CCCCN)C(=O)N[C@@H](CCCCN)C(N)=O [KWLKKWLKWLKK]
MIC [18]: 4.75 µM (≈ 8 µg/mL) | MIC [19]: 9.49 µM (≈ 16 µg/mL) | MIC [20]: 1.19 µM (≈ 2 µg/mL) | MIC [21]: 1.19 µM (≈ 2 µg/mL) | MIC [22]: 1.19 µM (≈ 2 µg/mL) | MIC [23]: 1.19 µM (≈ 2 µg/mL) | MIC [24]: 2.37 µM (≈ 4 µg/mL) | MIC [25]: 1.19 µM (≈ 2 µg/mL) | MIC [26]: 1.19 µM (≈ 2 µg/mL)

Second part, led by results:

MIC [27]: 16 µM (≈ 49.8 µg/mL) | MIC [28]: 4.27 µM (≈ 13.3 µg/mL) | MIC [29]: 3.42 µM (≈ 10.7 µg/mL) | MIC [30]: 31.9 µM (≈ 99.6 µg/mL)
SMILES: CC(C)C[C@H](NC(=O)[C@H](CCCN=C(N)N)NC(=O)[C@H](Cc1ccccc1)NC(=O)[C@H](Cc1ccccc1)NC(=O)[C@@H](NC(=O)[C@H](CO)NC(=O)[C@@H](N)CC(C)C)[C@@H](C)O)C(=O)N[C@@H](Cc1ccccc1)C(=O)N[C@@H](CC(N)=O)C(=O)N[C@@H](CCCN=C(N)N)C(=O)N[C@@H](CO)C(=O)N[C@@H](Cc1ccccc1)C(=O)N[C@H](C(=O)N[C@@H](CCC(N)=O)C(=O)NCC(=O)N[C@@H](CCCN=C(N)N)C(=O)N[C@@H](CCCN=C(N)N)C(=O)N[C@@H](CCCN=C(N)N)C(=O)N[C@@H](CCCN=C(N)N)C(=O)N[C@@H](CO)C(=O)N[C@H](C(=O)N[C@@H](CCC(N)=O)C(=O)N[C@@H](Cc1c[nH]c2ccccc12)C(=O)N[C@@H](CS)C(=O)N[C@@H](C)C(=O)O)C(C)C)[C@@H](C)O [LSTFFRLFNRSFTQGRRRRSVQWCA]

MIC [31]: ≥ 64 µM | MIC [32]: 32 µM (≈ 55.7 µg/mL)
SMILES: CC(C)C[C@H](NC(=O)CNC(=O)[C@H](CC(N)=O)NC(=O)[C@@H](NC(=O)[C@@H](NC(=O)CNC(=O)[C@H](CC(C)C)NC(=O)[C@H](C)NC(=O)[C@H](CCCCN)NC(=O)[C@H](CC(N)=O)NC(=O)[C@H](CC(C)C)NC(=O)[C@H](CC(C)C)NC(=O)[C@@H](N)CC(N)=O)[C@@H](C)O)C(C)C)C(=O)N[C@@H](CC(C)C)C(=O)NCC(=O)N[C@@H](CCCN=C(N)N)C(=O)N[C@@H](CO)C(=O)O [NLLNKALGTVNGLLGRS]

MIC [33]: 2.18 µM (≈ 3.9 µg/mL) | MIC [34]: 2.18 µM (≈ 3.9 µg/mL) | MIC [35]: 34.9 µM (≈ 62.5 µg/mL) | MIC [36]: ≥ 34.9 µM | MIC [37]: 2.18 µM (≈ 3.9 µg/mL) | MIC [38]: ≥ 34.9 µM
SMILES: CC[C@H](C)[C@H](NC(=O)[C@H](CCCCN)NC(=O)[C@H](Cc1cnc[nH]1)NC(=O)[C@H](CC(C)C)NC(=O)[C@H](CC(C)C)NC(=O)[C@H](Cc1ccccc1)NC(=O)[C@H](CC(N)=O)NC(=O)[C@@H](N)C(C)C)C(=O)N[C@@H](Cc1ccc(O)cc1)C(=O)NCC(=O)N[C@@H](CC(N)=O)C(=O)N[C@H](C(=O)N[C@@H](CCCN=C(N)N)C(=O)N[C@@H](CC(=O)O)C(=O)N[C@@H](CO)C(=O)O)[C@@H](C)CC [VNFLLHKIYGNIRDS]
MIC [39]: 18 µM (≈ 32.2 µg/mL)
